Values quoted from earlier work as cited in PMC3372989, “Conformational Differences between Active Angiotensins and Their Inactive Precursors” (Acta Naturae, 2012).

Assays:
[1] = background statement, no reference printed directly at the statement
receptors of Ang2 = conditions: ref [4]
Excerpt: The oft-cited example of the structural differences between peptides found in their protein precursor and peptides in a free state is human angiotensinogen and its metabolites; i.e. , angiotensins 1, 2 and 3. Angiotensin 1 (Ang1) is a prohormone that consists of 10 amino acid residues and is produced from angiotensinogen as a result of the cleavage of the N-terminal peptide. […] Angiotensin 2 (Ang2) differs from angiotensin 1 by the absence of two C-terminal amino acid resi ...

[2] = doses needed for immunization (10–50 µg/mouse), even intramuscular and subcutaneous injections
Excerpt: The human and mouse angiotensins 1, as well as angiotensins 2 and 3, have identical amino acid sequences. […] Altogether, it makes angiotensins extremely inconvenient immunogens; however, their conjugation with Hsp70, an adjuvant protein from M. tuberculosis, allowed to overcome the immunological tolerance and to eliminate the toxicity. As a result, we ob ...

Substance | physiological activity [1] | binding to the receptors of Ang2 (receptors of Ang2) | fatal outcome on introduction into the body [2]
angiotensin 1 | exhibits no physiological activity | incapable of binding to the receptors of Ang2 | –
angiotensin 2 | exhibit physiological activity | – | leads to a fatal outcome
